Experimental data reported in US11103523B2, “Self-assembled brush block copolymer-nanoparticles for drug delivery” (UNIVERSITY OF CONNECTICUT, priority 2013, dated 2021).

Legend:
HeLa cells [1] = assay: Intracellular uptake in HeLa cells (confocal microscopy and flow cytometry); format: cell-based, human; conditions: 25 μg/mL DOX equivalents
Protocol: To observe the cellular uptake, HeLa cells were seeded at a density of 1.0×10^5 cells/well in an 8-well chamber of a Lab-Tek II chamber slide and pre-incubated for 24 h at 37° C. and 5% CO2. Serum-free DMEM containing free DOX and DOX-NPs at equivalent doses (25 μg/mL) was added to each well, followed by incubation for 2 h at 37° C. The cells were then rinsed with PBS, stained with 10 μM Draq5 and fixed with 4% formaldehyde solution for 10 min. Cover glasses were then placed on glass slides. The cellular uptake of free DOX and DOX-NPs was imaged by confocal laser scanning microscopy (Leica, England) at an excitation wavelength of 488 nm for DOX and 633 nm for Draq5.
To quantify cellular uptake, HeLa cells (5×10^5 cells/well) in 0.5 mL were grown on a 24-well plate at 37° C. in a humidified atmosphere of 5% CO2 for 24 h. Serum-free DMEM containing free DOX and DOX-NPs at equivalent doses (25 μg/mL) was added to the cells which were subsequently incubated for 2 h. The cells were then washed three times with PBS, harvested by trypsinization and transferred into Fluorescence Activated Cell Sorter (FACS) tubes. All samples were analyzed by flow cytometry (FACSCalibur, BD Biosciences, San Jose, Calif.) to determine cellular internalization. Fluorescence measurements of intracellular DOX were performed in the FL2 channel.

[2] = Tissue distribution of DOX in A549 tumor-bearing SCID mice; format: in vivo; conditions: 24 h after i.v. 2.5 mg/kg equivalent DOX
Protocol: For the tissue distribution study, tumor-bearing severe combined immunodeficient (SCID) between 6 and 8 weeks-old mice were inoculated with 0.1 mL PBS containing 2×10^6 human lung cancer cells (A549) into the right flank. […] Twenty four hours after injection, mice were sacrificed for blood and organ collection including tumor, liver, spleen, kidney, lung, and heart. Tissues were then weighed and homogenized in the lysis buffer (0.1 M Tris-HCl, 2 mM EDTA, 0.1% Triton X-100) using a probe sonicator (Qsonica LLC, CT). The lysate of each tissue was centrifuged at 14,000 rpm for 20 min at 4° C. The blood was centrifuged at 3000 rpm for 10 min at 4° C.

A549 cells = assay: Antitumor activity and systemic toxicity in SCID mice bearing subcutaneous A549 tumors; format: in vivo
Protocol: The antitumor efficacy of DOX and DOX-NPs was evaluated in SCID mice inoculated subcutaneously in the right flank with 0.1 mL PBS containing 2×10^6 A549 cells. When the tumors grew to approximately 20-30 mm^3 (9 days after tumor implantation), the mice were randomly divided into three groups (n=5-6), and this day was designated as day 0. The mice were injected intravenously twice a week via tail vein with saline (control), free DOX and DOX-NPs (100 μL) at 2.5 mg/kg of equivalent DOX. Antitumor activity was evaluated in terms of tumor volume which was calculated using the following equation: Tumor volume (mm^3)=width^2×length/2. The body weight was measured simultaneously as an indicator of the systemic toxicity.

HeLa cells [3] = assay: Cytotoxicity in HeLa cells, MTT; conditions: all DOX concentrations (1-50 μg/mL), 24 h
Protocol: HeLa cells (7500 cells/well) were seeded on 96-well plates and cultured in 200 μL of DMEM supplemented with 10% FBS, 1% antibiotics, and 1% L-glutamine for 24 h at 37° C. and 5% CO2. After incubation, various concentrations of the blank nanoparticles (0.2-1 mg/mL), DOX-NPs, and free DOX (1-50 μg/mL of DOX equivalents) dissolved in DMEM without supplements were added. After 24 h of incubation with free DOX and DOX-NPs, and 48 h with blank nanoparticles, cytotoxicity was determined using 3-[4,5-dimethylthiazol-2-yl]-3,5-diphenyltetrazolium bromide dye (MTT dye, final concentration of 0.5 mg/mL) uptake at 540 nm on a microplate reader (Tecan group Ltd., Mannedorf, Switzerland).

[4] = 2.5 mg/kg equivalent DOX, tumor-bearing SCID mice

For `COc1cccc2c1C(=O)c1c(O)c3c(c(O)c1C2=O)C[C@@](O)(C(=O)CO)C[C@@H]3O[C@H]1C[C@H](N)[C@H](O)[C@H](C)O1` [free DOX, doxorubicin], the “mean fluorescence intensity (flow cytometry)” value (HeLa cells [1]; 2 h) was “greater fluorescence intensity than those treated with DOX-NPs”, the “intracellular distribution of DOX fluorescence (CLSM)” value (HeLa cells [1]; 2 h of incubation) was “strong red color in the nuclei” and the “tissue with greatest / lowest concentration of DOX” value [2] was “greatest in the liver and lowest in the tumor”. For the same molecule, the “effect on tumor growth” value (A549 cells; 2.5 mg/kg equivalent DOX i.v. twice a week) was “tumor growth was inhibited”, the “decrease in body weight” value (A549 cells; [4]) was 28.1±1.2% and the survival (A549 cells; [4]) was “death of all mice within 11 days”. The cytotoxicity comparison (HeLa cells [3]) was “significantly higher cytotoxicity than DOX-NPs”.
